Reference: patent US5958966A, “Treatment of aberrant cellular states with biomodulators” (University of New Mexico, priority 1995, dated 1999)
“Also recorded” adds a separate entry of the source. Like-named read-outs stand apart in the source and are kept apart here.

Legend:
[1] = test system: human peripheral blood leukocytes (HPBL); assay: stimulation / inhibition of IgG production in HPBL; format: cell-based; settings: for activation at 0.1 µM: Homo sapiens, Leukocyte, 90 h
Description: Human peripheral blood leukocytes were cultured in a standard tissue culture medium. Aliquots of these cultured cells (1,000,000 cells/ml medium) were cultured for 6 hours, and the specified amount of Formula II compound was added; the cells were then cultured for an additional 90 hours. Sheep red blood cells (SRBC) conditioned with class-specific (IpG) goat anti-human antiserum (1:400) for 2 hours; then guinea pig complement (2%) for 2 hours were conjugated to Protein A as described in detail in Radioimmunoimaging and Radioimmunotherapy, Eds. S. W. Burchiel and B. A. Rhodes, Elsevier Science Publishing; New York, 1983, pp. 125-127, incorporated herein by reference.

Canine glioma cells = assay: generation time of canine glioma cells (Formula II compound); format: cell-based; settings: for Tg: control 18.6
Description: The cells were harvested every 72 hours after the controls had reached 85% confluency. Generation time (Tg) was determined as the number of hours required for the cell population to double.
Mean of triplicate determinations. Canine glioma cells were grown under conditions to promote exponential growth characteristics; 2×10^5cells in a T-25 flask. The cells were harvested every 72 hours after the controls had reached approximately 85% confluency. The drug was added at the initiation of culture in DMSO, the control cultures had just DMSO. The drug concentration was adjusted with DMS0 so that the final concentration of DMS0 was always 0.5%.

[2] = test system: human colon carcinoma cell line (LS-174); assay: generation time of LS-174 human colon carcinoma cells; format: cell-based; settings: for Tg: control 26.5
Description: The procedure of Example VA, above, was repeated except a human colon carcinoma cell line (LS-174) was used instead of the canine glioma cell line.
Mean of triplicate determinations. LS-174 cells (human colon carcinoma) were grown under conditions to promote exponential growth characteristics; 2×10^5 cells in a T-25 flask. The cells were harvested every 72 hours after the controls had reached approximately 85% confluency. The drug was added at the initiation of culture in DMSO, the control cultures had just DMS0. The drug concentration was adjusted with DMSO so that the final concentration of DMS0 was always 0.5%.

canine glioma tumors = canine glioma tumors in nude rats; format: in vivo, nude rat
Description: C57 BL/6 mice were injected I.M. with B-16 melanoma cells, maintained in culture in the right flank or shoulder. Tumor growth was monitored on a daily basis by physical measurement and by MRI/MRS on a weekly basis. Treatment routes were via intraperitoneal injection using various CAD between 1 μg and 0.001 μg per animal on a M, W, F injection schedule. The animals were terminated by CO2 when the tumors had become 1.0 cm in diameter. Lung metastases were counted.
Various biomodulators were tested in vivo for their effects on canine glioma tumors established and monitored as above for mice, but in nude rats.
The histology stain toluidine blue is in the lower right hand position for orientation.

P-815 mastocytoma cells = assay: P-815 cytotoxic T lympholysis / cell mediated lympholysis; format: cell-based, mouse; settings: hydrocortisone 2 mg day -2; hydroxyurea 10^-5 M
Description: In this case the P-815 is injected into the H-2 incompatible host and in the Brunner and Cerotini model an antigen specific lympholysis event occurs with an optimum on day 11 at an effector/target ratio of 100:1 with 30% lysis. If the spleens of the injected animals are removed on day three there is no observable cytotoxicity; however, if the spleen cells are treated with biomodulator (in this case PWM at 100 ng) there is an enormous increase in the cytotoxicity event. […] Our model involves at least seven point cytotoxicity curves and for comparison purposes we calculate the slope, intercept and correlation coefficients, and then use that data for further analyses. The slope represents a measure of the efficiency of kill and in the biomodulator treated cells is approximately […] versus 0.24 for the control antigen driven response on day 11. This represents a seven fold increase in simple cytotoxicity efficiency. […]
P 815 mastocytoma cells are grown in culture or as an ascites (DBA H-2/d) and injected into C57BL/6J mice (H-2/b). […] The specificity of the response is assessed by testing the cytotoxicity against EL-4 cells ([…]) which are NK insensitive and histoincompatible with the original target. […]
Seven effector/target ratios are tested and the percent lysis calculated. […]

canine glioma (CG) cells = assay: cell surface oligosaccharide display of canine glioma cells (lectin binding, Scatchard, Gibb's Free Energy); format: cell-based
Description: Taken together these affinity differences account for almost 10 kcal of additional binding energy retrievable from interactions in the case of the IMR-90s which is unavailable to the CGs. […] This treatment regimen results in an increase in the Tg of the cells as well as changes in the proton linewidth of unfrozen water (shown below). […] This display more closely resembles that of the growth regulated IMR-90s. It should be noted that the actual lines on these figures are visual estimates however, the data in the boxes are calculated values. It is these values that are used to estimate the GFE for comparison purposes.
The cell surface oligosaccharide display was assessed by methods developed previously. In brief, cells from a sub-culturing were aliquotted into 96 well trays at 5×10^5 cells per ml, 100 μL aliquots. After 16 hours of culture the cells were washed, fixed, and blocked with 0.1% BSA/PBS. Optimal lectin concentrations (5 μg/ml)were used to give 80 to 90% saturation of the available sites. Three carbohydrate ligands at 10 μg concentrations in triplicate or quadruplicate were then used to prepare competition curves for the lectin binding. The Bound over Free (B/F) ratio was calculated and the Ligand microprocessor program was used to determine the optimal fit of the data to a polynomial generated model. The Gibb's Free Energy (GFE) was calculated from the Scatchard data on the competition assay by the following equation: GFE=-RT 1n Kequit. The proton NMR linewidth measurements were conducted as described previously.

canine glioma = canine glioma implanted in dog brain (Formula II / TF compounds); format: in vivo
Description: Canine glioma was implanted surgically into the brains of four outbred dogs (2×10^6 cells). This procedure normally causes death by tumor growth in 14-28 days. […]
Tumor progress was assessed at weekly intervals by NMR, employing GdDTPA as imaging agent. This method illuminates vascularization at the surface of the tumor, and provides images which correlate well with neuropathological observations.

HPBL / IMR-90 cells = assay: biomodulator assay; format: cell-based, human
Description: a. Biomodulators cause, at a concentration in the general range of 100 pM-1 μm, the differentiation of lymphocytes. This differentiation can be detected by, for example, the increased production of specific and non-specific antibodies in response to the presence of biomodulator in the culture medium, e.g., according to the HPBL method discussed above in C, or the alteration in the class of antibodies being produced by a cell line, e.g., from IgM to IgG, e.g., according to the method disclosed in the same reference.
b. Biomodulators cause, at a concentration in the general range of 100 pM-1 μm, the alteration of the cell surface oligosaccharide display of IMR-90 cells in culture as discussed in A. above.
Activity in both of these assays is a necessary and sufficient measure of whether or not a given substance is a biomodulator, as defined herein.

[3] = test system: T-independent antigen (TNP-Ficoll) response; assay: in vivo humoral response to TNP-Ficoll (plaque assay); parameters: species or system mouse; settings: mice
Description: In this case both IgM and IgG hapten specific responses were recorded as well as non-antigen specific plaque responses (Ig-PFC) using a Protein A coated red blood cell target.
The TNP-Ficoll antigen is administered as the SRBC antigen was above, by i.p. injection and the response assessed by conjugating the TNP hapten directly to the SRBC target, thus obviating any potential "carrier" effect. […] In this case, a third experimental parameter has been added to the study, the production of non-specific immunoobulin (Ig-PFC). This parameter provides information on the general status of the humoral response regardless of antigen specificity. The TNP-Ficoll antigen does elicit a modest Ig-PFC response but little if any IgG specific response. […] In this case there is a very large specific and non-specific augmentation.

[4] = 10 nM, 12 × 4 h (so in the source)
[5] = pre-treated, 10 ng/kg I.P. M, W, F
[6] = 1 ng/kg I.P. begun same day as implantation

Compound: CC(C)OC(=O)C[C@H](O)C[C@@H](O)/C=C/c1c(C(C)C)nc(-c2ccccc2)n1-c1ccc(F)cc1 (relative stereo) [Compound IIe']
- Stimulation of IgG Production ([1]; 1&100 nM): 1990%
- IgG production in words ([1]; HPBL): stimulated IgG production
- activation at 0.1 µM ([1]; lower concentrations (100 nM), read-out: enhancement of IgG production): < 350%
- % Change (Tg) (Canine glioma cells; 10 nM, 72x2 h): 129%
- Tg (Canine glioma cells; 10 nM, 72x2 h): 24.0 h
- % Change (Tg) (Canine glioma cells; 10 nM, 72x3 h): 180%
- Tg (Canine glioma cells; 10 nM, 72x3 h): 33.4 h
- % Change (Tg) (Canine glioma cells; 10 nM, 72x4 h): 155%
- Tg (Canine glioma cells; 10 nM, 72x4 h): 28.9 h
- % Change (Tg) (Canine glioma cells; 10 nM, 72 h): 136%
- contact inhibition (Canine glioma cells; cells approaching confluency): showed evidence of contact inhibition as the cells approached confluency
- slowing of the growth rate (Canine glioma cells; three passages, 10 nM): 1.8 fold
- % Change (Tg) [2, 4]: 414%
- Tg [2, 4]: 109.6 h
- % Change (Tg) ([2]; 10 nM, 72 × 2 h): 400%
- Tg ([2]; 10 nM, 72 × 2 h): 106.2 h
- % Change (Tg) ([2]; 10 nM, 72 × 3 h): 416%
- Tg ([2]; 10 nM, 72 × 3 h): 110.3 h
- % Change (Tg) ([2]; 10 nM, 72 h): 320%
- prolongation of generation time ([2]; three passages, 10 nM): 4.16 fold
- generation time after drug withdrawal ([2]; two passages, data not shown): returned to control levels

Compound: CC(C)OC(=O)C[C@H](O)C[C@H](O)/C=C/c1c(C(C)C)nc(-c2ccccc2)n1-c1ccc(F)cc1 [HHD-3]
- effect on tumor growth (canine glioma tumors): showed no regression effect, just delay of the control growth pattern

Compound: CC(C)OC(=O)C[C@H](O)C[C@@H](O)/C=C/c1c(C(C)C)nc(-c2ccccc2)n1-c1ccc(F)cc1 [HHD-7]
- effect on tumor growth (canine glioma tumors): showed the best regression

Compound: C[C@]12CCC(=O)C=C1CC[C@@H]1[C@@H]2[C@@H](O)C[C@@]2(C)[C@H]1CC[C@]2(O)C(=O)CO [Hydrocortisone]
- influence on the biomodulator effect on CML (P-815 mastocytoma cells): reduced the biomodulator effect

Compound: NC(=O)NO [Hydroxyurea]
- influence on the biomodulator effect on CML (P-815 mastocytoma cells): does not inhibit the biomodulator effect on CML

Compound: CC(C)OC(=O)C[C@H](O)C[C@H](O)/C=C/c1c(C(C)C)nc(-c2ccccc2)n1-c1ccc(F)cc1 [IId]
- activation at 0.1 µM ([1]; 100 nM, read-out: Stimulation of IgG Production): 320%

Compound: O[C@H]1[C@H]2[C@H](O)CCCN2C[C@H]1O [Swainsonine (Sw)]
- exposure time for increase in GFE (canine glioma (CG) cells): approximately 300 hours

Compound: CC(C)c1nc(-c2ccccc2)n(-c2ccc(F)cc2)c1/C=C/[C@H](O)C[C@H](O)CC(=O)O [TF-002]
- later tumor status (canine glioma; later studies, data not shown): free of tumor
- day of appearance of small tumor (canine glioma; [5]): 12 days
- tumor regressed by day (canine glioma; [5]): ≤ 19 days

Compound: CC(C)c1c(/C=C/C(O)CC(O)CC(=O)O)n(-c2ccc(F)cc2)c2ccccc12 (stereo not drawn) [TF-004]
- complete regression by day (canine glioma; [6]): ≤ 21 days
- substantial regression by day (canine glioma; [6]): ≤ 15 days
- complete regression by day (canine glioma; treatment begun on Day 11): ≤ 30 days
- substantial regression by day (canine glioma; treatment begun on Day 11): ≤ 21 days

Compound: Cc1c(/C=C/C(O)CC(O)CC(=O)O)ccc2c1C(O)CC(C)C2 (stereo not drawn) [colletruncoic acid]
- biomodulator activity (HPBL / IMR-90 cells): has been shown to have biomodulator activity

Compound: Dextran
- PFC response to TNP-Ficoll [3]: some stimulatory effect; also recorded: marked cellular proliferation but little differentiative response
